pIC50: −log10 of the molar value. Values joined by “and” are separate entries in the source; they are usually repeats but may differ in a detail not shown here. Equal values may be shown once. Read-outs that look alike come from different tables or passages of the source.
Key:
[1] = design: method as in Investigator's Brochure (IB) 12; conditions: dogs, ref Investigator's Brochure (IB) 12, cited from earlier work
PI3Kβ, PI3Kδ, and PI3Kγ = test system: PI3Kβ, PI3Kδ, and PI3Kγ; design: method as in PMID 33109399; conditions: read-out: IC50 range; cited from earlier work
[2] = test system: EC063 esophageal cancer PDX; design: method as in Investigator's Brochure (IB) 12; conditions: 12.5 mg/kg oral for 21 days; ref Investigator's Brochure (IB) 12; cited from earlier work
[3] = design: method as in Investigator's Brochure (IB) 12; conditions: ref Investigator's Brochure (IB) 12, cited from earlier work; for absolute bioavailability: 1 mg/kg
[4] = test system: KYSE410, KYSE510, EC104, EC063, EC074 xenograft models; design: method as in Investigator's Brochure (IB) 12; conditions: ref Investigator's Brochure (IB) 12, cited from earlier work
advanced solid tumors = assay: Radiological efficacy per RECIST 1.1 (ORR, DCR, CBR, PFS, DoR, best response); format: in vivo, human; design: key to Best response, individual patient: CR, complete response; PR, partial response; SD, stable disease; PD, progressive disease; Two best responses marked as NE represented SD lasting less than 5 weeks
Procedure: The primary endpoints of the phase Ia included (i) the type and frequency of treatment emergent adverse events (TEAEs) which were assessed per National Cancer Institute Common Terminology Criteria for Adverse Events (NCI-CTCAE) v4.03, laboratory results, electrocardiogram (ECG), cardiac imaging, physical examination findings (including vital signs, weight, and ECOG scores), (ii) number and proportion of subjects who occurred DLTs in each dose group during dose-escalation stage, (iii) the MTD, if the MTD was not observed, the RP2D will be determined through PK/PD data, safety and preliminary efficacy. The secondary endpoints included preliminary efficacy assessments based on ORR, PFS, DoR, DCR, and clinical benefit rate, assessed per RECIST 1.1,PK parameters for CYH33 and its metabolite I27, and changes in PD biomarkers in response to CYH33 treatment.
The analysis of the phase Ia study was pre-planned and reviewed by the SMC. The Kaplan–Meier method was used to summarize time-to-event endpoints. Response rates were summarized using a point estimate and 95% Clopper–Pearson confidence interval. The full analysis set (FAS) included all study patients who received at least one dose of study drug and was used for the analysis of baseline characteristics. The safety analysis set included all study patients who had received at least one dose of the study drug and was used for all safety analysis. The efficacy evaluable analysis set included patients who received at least one dose of CYH33 and had baseline tumor assessment data and at least one post-baseline tumor assessment. All statistical analyses were performed using SAS software v9.3 (Cary, North Carolina, USA). No data were excluded from the analyses. As a phase Ia, open label, dose-escalation and -expansion study, the study was not randomized, and the investigators were not blinded to allocation during trial and outcome assessment.

[5] = evaluable analysis set, 30 mg QD, n = 9
[6] = evaluable analysis set, 40 mg QD, n = 19
[7] = evaluable analysis set, 1–20 mg QD, n = 10
[8] = evaluable analysis set, all patients 1–60 mg QD, n = 42
[9] = one patient, gastric cancer (PIK3CA E542K), 30 mg
[10] = one patient, ovarian cancer (PIK3CA E545A), 40 mg

## COC(=O)Nc1cc(C(F)(F)F)c(-c2nc(N3CCOCC3)c3cc(CN4CCN(S(C)(=O)=O)CC4)cn3n2)cn1 [CYH33, methyl (5-(6-((4-(methylsulfonyl)piperazin-1-yl)methyl)−4-morpholinopyrrolo[2,1-f][1,2,4]triazin-2-yl)−4-(trifluoromethyl)pyridin-2-yl)carbamate]
[1]; 0.05 mg/kg
  absolute bioavailability: 70.9%
[1]
  Vss, steady-state volume of distribution: 1.86 L/kg
  accumulation after continuous administration for 7 days: not significant
  elimination half-life: 5.1 h
  plasma clearance CL: 6.75 mL/min/kg
PI3Kβ, PI3Kδ, and PI3Kγ
  pIC50: 6.21 to 7.37
[2]
  T/C ratio: approximately 30%
[3]; female rats
  absolute bioavailability: 53.7%
  plasma clearance CL: 34.0 mL/min/kg
  t1/2: 6.7 h
[3]; intragastric administration
  exposure AUC0-t in female rats relative to male rats: more than 12 times
[3]; male rats
  absolute bioavailability: 19.0%
  plasma clearance CL: 4.83 mL/min/kg
  t1/2: 1.3 to 4.5 h
[3]; rats
  Vss, steady-state volume of distribution: 1.96 L/kg
  accumulation after continuous administration for 7 days: not significant
[4]; 50 mg/kg dose group, subcutaneous xenograft tumor model
  T/C%: < 20%
[4]; oral for 21 days
  effective dose in nude mice: 12.5 mg/kg
Advanced solid tumors; 1 mg, PIK3CA mutation Unknown
  Best percentage of change from baseline (sum of target lesion diameters), individual patient: 28.8%
  Best response, individual patient: PD
Advanced solid tumors; 5 mg, PIK3CA mutation Unknown
  Best percentage of change from baseline (sum of target lesion diameters), individual patient: 38.8%
  Best response, individual patient: PD
Advanced solid tumors; 10 mg, PIK3CA mutation Unknown
  Best percentage of change from baseline (sum of target lesion diameters), individual patient: -4.6% and 20.8%
  Best response, individual patient: SD and PD
Advanced solid tumors; 20 mg, PIK3CA E545K
  Best percentage of change from baseline (sum of target lesion diameters), individual patient: -84.4% and 13.7% and 12.6% and -23.8%
  Best response, individual patient: PR and PD and SD
Advanced solid tumors; 20 mg, PIK3CA mutation Unknown
  Best percentage of change from baseline (sum of target lesion diameters), individual patient: -6.4% and 1.0%
  Best response, individual patient: PD
Advanced solid tumors; 30 mg dose level
  confirmed ORR: 11.1%
Advanced solid tumors; 30 mg, PIK3CA E542K
  Best percentage of change from baseline (sum of target lesion diameters), individual patient: -22.2% and -39.5%
  Best response, individual patient: SD
Advanced solid tumors; 30 mg, PIK3CA E545K
  Best percentage of change from baseline (sum of target lesion diameters), individual patient: 9.7% and 23.8% and -61.8% and -16.5%
  Best response, individual patient: PD and PR and SD
Advanced solid tumors; 30 mg, PIK3CA H1047L
  Best percentage of change from baseline (sum of target lesion diameters), individual patient: -24.2%
  Best response, individual patient: SD
Advanced solid tumors; 30 mg, PIK3CA H1047R
  Best percentage of change from baseline (sum of target lesion diameters), individual patient: 12.5%
  Best response, individual patient: SD
Advanced solid tumors; 30 mg, PIK3CA mutation Other
  Best percentage of change from baseline (sum of target lesion diameters), individual patient: 10.0%
  Best response, individual patient: SD
Advanced solid tumors; 40 mg dose level
  confirmed ORR: 15.8%
Advanced solid tumors; 40 mg, PIK3CA E545A
  Best percentage of change from baseline (sum of target lesion diameters), individual patient: -100.0%
  Best response, individual patient: CR
Advanced solid tumors; 40 mg, PIK3CA E545K
  Best percentage of change from baseline (sum of target lesion diameters), individual patient: -47.1% and 13.1%
  Best response, individual patient: PR and PD
Advanced solid tumors; 40 mg, PIK3CA H1047R
  Best percentage of change from baseline (sum of target lesion diameters), individual patient: -20.0%
  Best response, individual patient: SD
Advanced solid tumors; 40 mg, PIK3CA Q546K
  Best percentage of change from baseline (sum of target lesion diameters), individual patient: -13.0%
  Best response, individual patient: SD
Advanced solid tumors; 40 mg, PIK3CA Q546R
  Best percentage of change from baseline (sum of target lesion diameters), individual patient: -36.0%
  Best response, individual patient: SD
Advanced solid tumors; 40 mg, PIK3CA mutation Other
  Best percentage of change from baseline (sum of target lesion diameters), individual patient: 8.1% and 2.2% and -29.0% and 12.8% and 7.7% and -28.9% and -13.9%
  Best response, individual patient: PD and SD and NE
Advanced solid tumors; 40 mg, PIK3CA mutation Unknown
  Best percentage of change from baseline (sum of target lesion diameters), individual patient: -66.7% and -13.8% and -13.1% and 28.3% and 0.0% and 38.8%
  Best response, individual patient: PR and SD and PD and NE
Advanced solid tumors; 60 mg, PIK3CA E545K
  Best percentage of change from baseline (sum of target lesion diameters), individual patient: 0.0%
  Best response, individual patient: SD
Advanced solid tumors; 60 mg, PIK3CA mutation Other
  Best percentage of change from baseline (sum of target lesion diameters), individual patient: 28.6%
  Best response, individual patient: PD
Advanced solid tumors; 60 mg, PIK3CA mutation Unknown
  Best percentage of change from baseline (sum of target lesion diameters), individual patient: -7.1% and 68.2%
  Best response, individual patient: PD
Advanced solid tumors; 1–20 mg dose level
  confirmed ORR: 10%
Advanced solid tumors; 42 evaluable patients
  patients with confirmed complete response: 1
  patients with confirmed partial responses (PR): 4
Advanced solid tumors; all evaluable patients (5/42)
  confirmed objective response rate (ORR; CR + PR): 11.9%
Advanced solid tumors; all evaluable patients (15/42)
  disease control rate (DCR; CR + PR + SD ≥ 6 weeks): 35.7%
Advanced solid tumors; breast cancer with PIK3CA mutations (2/5)
  confirmed response rate: 40%
Advanced solid tumors; [5]
  CBR: 1 (11.1) n (%)
  CR: 0 n (%)
  DCR (CR + PR + SD lasting ≥ 6 weeks): 1 (11.1) n (%)
  PR: 1 (11.1) n (%)
  confirmed ORR: 1 (11.1) n (%)
  mDoR (Kaplan–Meier): 80 days
  mPFS (Kaplan–Meier): 79 days
Advanced solid tumors; [6]
  CBR: 3 (15.8) n (%)
  CR: 1 (5.3) n (%)
  DCR (CR + PR + SD lasting ≥ 6 weeks): 10 (52.6) n (%)
  PR: 2 (10.5) n (%)
  confirmed ORR: 3 (15.8) n (%)
  mDoR (Kaplan–Meier): 152 days
  mPFS (Kaplan–Meier): 121 days
Advanced solid tumors; [7]
  CBR: 2 (20.0) n (%)
  CR: 0 n (%)
  DCR (CR + PR + SD lasting ≥ 6 weeks): 3 (30.0) n (%)
  PR: 1 (10.0) n (%)
  confirmed ORR: 1 (10.0) n (%)
  mDoR (Kaplan–Meier): 77 days
  mPFS (Kaplan–Meier): 47 days
Advanced solid tumors; [8]
  CBR: 6 (14.3) n (%)
  CR: 1 (2.4) n (%)
  DCR (CR + PR + SD lasting ≥ 6 weeks): 15 (35.7) n (%)
  PR: 4 (9.5) n (%)
  confirmed ORR: 5 (11.9) n (%)
  mDoR (Kaplan–Meier): 80 days
  mPFS (Kaplan–Meier): 79 days
Advanced solid tumors; evaluable patients harboring PIK3CA mutations (4/28)
  confirmed objective response rate: 14.3%
Advanced solid tumors; evaluable patients with PIK3CA mutations (13/28)
  DCR: 46.4%
Advanced solid tumors; one patient, breast cancer (Luminal B, HER2-, PIK3CA E545K), 40 mg
  DoR: 22.0 weeks
Advanced solid tumors; [9]
  time of progressive disease: 11 week
  time of treatment to PR: 6 weeks
Advanced solid tumors; [10]
  DoR (longest): 15.2 months
  time of treatment to CR: 29.3 weeks
  time of treatment to PR: 5.3 weeks
Advanced solid tumors; ovarian cancer with PIK3CA mutations (2/5)
  confirmed response rate: 40%
